Data as given in US10889543B2, “Fine-tune modulators of neuronal excitability for neuropsychiatric disorders” (THE BOARD OF REGENTS OF THE UNIVERSITY OF TEXAS SYSTEM, priority 2016, dated 2021).
Residues, ends and D or L forms follow the SMILES beside them. *: point of attachment. Cbz = O=C(OCc1ccccc1)*; Boc = CC(C)(C)OC(=O)*

Experiments:
Nav1.6 C-tail = target: T1, Nav1.6 C-tail (Homo sapiens, UniProt Q9UQD0); test: Surface plasmon resonance spectroscopy, immobilized Nav1.6 C-tail; type: binding; conditions: SPR, 25° C., 10-200 μM
T1 construct: FGF14WT and Nav1.6 C-tail were immobilized; made in house
T1 sequence (Q9UQD0 1797-1980 limits assumed): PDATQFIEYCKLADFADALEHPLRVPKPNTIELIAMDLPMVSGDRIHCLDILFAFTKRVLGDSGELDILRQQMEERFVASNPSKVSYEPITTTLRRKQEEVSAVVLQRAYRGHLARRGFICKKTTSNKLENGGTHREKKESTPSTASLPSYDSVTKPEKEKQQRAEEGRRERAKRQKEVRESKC
Experimental: (§1) Surface Plasmon Resonance Spectroscopy. SPR experiments were performed on a Biacore T100 instrument (Biacore GE), and the interaction between FGF14 to Nav1.6 channel was studied at 25° C. To analyze the effects of ZL0181 on channel binding, FGF14WT and Nav1.6 C-tail were immobilized using acetate 5.5 with amine coupling kit on CM5 sensor chip, and obtaining RU 3000 and 4500 respectively. No protein was coupled to the control flow channel of the chip. ZL0181 (5-200 μM) in HBS-P+(50 μl/min) buffer ([…], 150 mM NaCl, 0.005% (v/v) P20), pH 7.4 were injected over the chip for 180 s. Next, HB S-P+ buffer without protein were passed over the chip for 180 s to monitor dissociation, and the chip surface was then regenerated with NaCl (200 mM). For each injection of ZL0181 binding to the FGF14WT or the Nav1.6, the nonspecific responses were subtracted from the responses obtained for control prior to data analysis. Maximal equilibrium responses were plotted against the concentrations of ZL0181, and the equilibrium dissociation constant (KD) was calculated from the fitted saturation binding curve. Fitted binding curves were judged to be accurate based on the distribution of the residuals (even and near zero). Graphs were plotted in GraphPad Prism 6 Software (La Jolla, Calif.).
(§2) The role of ZL0181 was further determined by surface plasmon resonance spectroscopy. […]

[1] = tested on: nucleus accumbens medium spiny neurons; test: Ex vivo whole-cell patch clamp of neuronal firing in brain tissue slices; type: cell-based, mice
Text: It is known in the art that nucleus accumbens plays a critical role in reinforcement-associated learning and in addiction-related behavior. See e.g., Woodruff-Pak, D. S., et al., Behavioral neuroscience 120:229-240 (2006); McKinney, B. C., et al., Genes, brain, and behavior 7:629-638 (2008). It has been shown that Nav1.6 channels are expressed at the nucleus accumbens medium spiny neurons. Shah, B. S., et al., The Journal of Physiology 534(Pt 3):763-776 (2001). The effect of ZL0181 on neuronal firing along with active and passive properties was tested using whole-cell patch clamp techniques in brain tissue slices. Nucleus accumbens medium spiny neurons (MNS) were treated with either DMSO (0.05×) or ZL0181 (50 μM) for one hour in an incubation chamber before being transferred to submerge experimental chamber perfused with oxygenated artificial cerebrospinal fluid for patch clamp experiments. […] For instance, at current step of 150 pA the number of spikes in DMSO treated MSNs was 18.4±1.3, n=8 versus 6.9±2.3, n=10 in ZL0181 treated MSNs; p<0.005 with Student t-test (FIG. 4B, Chart C). To test the mechanisms underlying neuronal firing reduction and related to sodium channels activity, action potential voltage and current thresholds were measured.
Coronal nucleus accumbens slices were prepared from FGF14−/− or wild type mice either treated with ZL0181 or vehicle control. Evoked action potentials were recorded in regular ASCF solution at 30-31° C. using Axopatch 200B and 700B amplifiers (Molecular Devices, Union City, Calif.). Recordings were filtered at 2 kHz and digitized at 10-20 kHz using a Digidata 1320 analog-to-digital interface and pClamp9 acquisition software (Molecular Devices, Union City, Calif.). Patch pipettes (4-6 MΩ) were prepared from borosilicate glass using a Narishige PC-10 vertical puller (Narishige International Inc., East Meadow, N.Y.). The extracellular bath solution contained (in mM) 130 NaCl, 3.5 KCl, 10 glucose, 1.5 MgCl2, 1.4 CaCl2, 23 NaHCO3, 1.25 NaH2PO4, osmolarity 300-310, pH 7.4, and the intracellular recording solution contained (in mM) 120 CH3KO3S, 10 KCl, 10 HEPES, 10 glucose, 2 MgCl2, 0.5 EGTA, 2 MgATP, and 0.5 NaGTP, osmolarity 280-290, pH 7.3. Upon forming a whole-cell connection, artificial cerebrospinal fluid containing 10 μM bicucilline (Tocris Bioscience), 30 μM NBQX (Tocris Bioscience), and 100 μM D-APV (Tocris Bioscience) was perfused into the bath solution in order to block synaptic transmission.
After seal formation and membrane rupture, action potential trains were evoked with current step protocol injections of 10 pA increment.

FGF14 = target: T2, FGF14 (Homo sapiens, UniProt Q92915); test: Surface plasmon resonance spectroscopy, immobilized FGF14; type: binding; conditions: SPR, 25° C., 10-200 μM
T2 construct: made in house
T2 sequence (Q92915 64-252 isoform Q92915-2 limits assumed): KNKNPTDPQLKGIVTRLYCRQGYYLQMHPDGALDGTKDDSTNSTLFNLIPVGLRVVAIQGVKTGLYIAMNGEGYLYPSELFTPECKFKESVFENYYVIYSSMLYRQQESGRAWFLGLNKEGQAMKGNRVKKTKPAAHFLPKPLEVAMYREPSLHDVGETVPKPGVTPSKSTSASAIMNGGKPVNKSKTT
Experimental: as §1, §2

Nav1.2 channels = target: T3, Nav1.2 channels (Homo sapiens, UniProt Q99250); test: Patch clamp of Na+ currents in Nav1.2 channels; type: cell-based
T3 construct: expressed in transfected cells
T3 sequence (Q99250 whole entry): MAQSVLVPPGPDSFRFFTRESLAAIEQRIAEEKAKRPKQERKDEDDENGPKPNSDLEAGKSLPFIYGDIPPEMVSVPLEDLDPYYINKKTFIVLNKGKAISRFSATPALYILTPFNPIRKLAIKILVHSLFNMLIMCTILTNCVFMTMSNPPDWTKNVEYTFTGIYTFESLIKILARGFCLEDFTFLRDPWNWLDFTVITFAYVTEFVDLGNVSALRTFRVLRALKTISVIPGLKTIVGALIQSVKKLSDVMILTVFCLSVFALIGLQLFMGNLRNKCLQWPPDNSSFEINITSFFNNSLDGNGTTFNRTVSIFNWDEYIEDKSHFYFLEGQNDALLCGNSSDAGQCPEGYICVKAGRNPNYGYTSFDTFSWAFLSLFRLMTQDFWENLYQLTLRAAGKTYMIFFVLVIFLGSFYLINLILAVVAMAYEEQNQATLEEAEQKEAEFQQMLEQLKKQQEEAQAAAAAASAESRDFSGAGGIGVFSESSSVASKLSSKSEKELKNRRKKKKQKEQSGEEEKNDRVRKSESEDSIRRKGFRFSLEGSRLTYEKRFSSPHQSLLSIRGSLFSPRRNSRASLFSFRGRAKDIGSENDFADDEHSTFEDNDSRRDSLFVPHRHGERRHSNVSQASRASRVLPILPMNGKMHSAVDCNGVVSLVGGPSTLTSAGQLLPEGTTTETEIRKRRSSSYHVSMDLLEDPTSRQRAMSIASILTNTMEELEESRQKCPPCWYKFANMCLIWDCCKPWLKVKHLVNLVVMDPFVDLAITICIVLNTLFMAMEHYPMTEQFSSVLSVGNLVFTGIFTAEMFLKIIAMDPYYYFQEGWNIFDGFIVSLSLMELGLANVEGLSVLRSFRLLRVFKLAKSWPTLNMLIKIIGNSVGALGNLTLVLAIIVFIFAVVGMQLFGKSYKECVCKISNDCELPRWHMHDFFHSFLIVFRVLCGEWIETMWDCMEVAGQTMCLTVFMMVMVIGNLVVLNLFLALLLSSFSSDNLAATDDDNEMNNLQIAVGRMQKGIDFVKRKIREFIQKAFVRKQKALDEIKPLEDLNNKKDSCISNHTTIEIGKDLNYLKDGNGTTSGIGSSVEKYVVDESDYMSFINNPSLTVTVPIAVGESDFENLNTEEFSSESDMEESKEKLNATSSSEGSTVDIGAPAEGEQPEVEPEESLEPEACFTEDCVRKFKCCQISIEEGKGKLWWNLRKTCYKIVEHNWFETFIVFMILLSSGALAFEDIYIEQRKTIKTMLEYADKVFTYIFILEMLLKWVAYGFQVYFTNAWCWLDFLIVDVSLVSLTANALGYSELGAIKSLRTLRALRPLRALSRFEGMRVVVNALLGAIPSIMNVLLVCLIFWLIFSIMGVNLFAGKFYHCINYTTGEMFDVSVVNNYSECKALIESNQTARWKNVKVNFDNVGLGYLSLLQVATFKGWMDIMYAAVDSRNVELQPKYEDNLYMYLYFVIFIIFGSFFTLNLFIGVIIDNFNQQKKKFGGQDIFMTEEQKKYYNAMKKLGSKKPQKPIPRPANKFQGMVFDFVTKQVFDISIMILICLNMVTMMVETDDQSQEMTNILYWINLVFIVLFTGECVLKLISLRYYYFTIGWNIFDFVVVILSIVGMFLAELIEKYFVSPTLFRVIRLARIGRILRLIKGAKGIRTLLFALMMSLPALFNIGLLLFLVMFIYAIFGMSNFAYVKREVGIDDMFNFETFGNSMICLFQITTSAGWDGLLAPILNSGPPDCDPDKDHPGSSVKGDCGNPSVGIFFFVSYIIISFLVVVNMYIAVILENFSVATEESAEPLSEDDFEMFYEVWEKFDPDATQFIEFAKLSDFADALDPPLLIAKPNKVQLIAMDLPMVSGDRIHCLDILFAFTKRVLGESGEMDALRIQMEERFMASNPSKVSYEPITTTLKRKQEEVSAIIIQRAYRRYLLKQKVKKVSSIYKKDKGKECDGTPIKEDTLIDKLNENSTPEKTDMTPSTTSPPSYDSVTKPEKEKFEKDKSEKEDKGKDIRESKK
Experimental: The role of ZL0181 in regulating Nav1.1 and Nav1.2 channels was also investigated.
HEK-Nav1.1, […] HEK-Nav1.6 were maintained in medium composed of equal volumes of DMEM and F-12 (Invitrogen) supplemented with 0.05% glucose, 0.5 mm pyruvate, 10% fetal bovine serum, 100 units/ml penicillin, 100 μg/ml streptomycin incubated at 37° C. with 5% CO2. For selection of Nav1.1 and Nav1.2, 500 μg/ml G418 (Invitrogen) was used, and for selection of Nav1.6, 80 μg/ml G418 (Invitrogen) was used. Cells were transfected according to manufacturer's instructions at 90-100% confluency using Lipofectamine 2000 (Invitrogen). See e.g., Shavkunov, A., et al. Assay and drug development technologies 10(2):148-160 (2012).
Detailed methods for path-clamp experiments is known in the art. See e.g., Ali, S. R., et al., Journal of Biological Chemistry 291:11268 (2016).

## CC(C)C[C@H](NC(=O)[C@H](Cc1ccccc1)NC(=O)OCc1ccccc1)C(=O)N1CCC[C@H]1C(=O)N[C@@H](CCCCNC(=O)OC(C)(C)C)C(N)=O [ZL0181, Z-Phe-Leu-Pro-Lys(Boc)-NH2] (Cbz-FLPK(Boc)-NH2)
Nav1.6 C-tail
  Kd: 212 µM
[1]; 50 μM for one hour, current step of 150 pA, n=10, DMSO 18.4±1.3
  number of spikes: 6.9±2.3
[1]; 50 μM for one hour, n=10, DMSO 72.5±11.5
  action potential current threshold: 135.8±12.5 pA
[1]; 50 μM for one hour, n=10, DMSO −35.9±2.3
  action potential voltage threshold: −27.8±2 mV
[1]; 50 μM, compared to DMSO control
  further neuronal active and passive properties: no significant changes
FGF14
  Kd: 13 µM
Nav1.2 channels
  peak current amplitude in Nav1.2 channels: suppresses peak current amplitude
Nav1.2 channels; in presence of FGF14
  synergy with FGF14 on Na+ current and rescue of V1/2 of inactivation, Nav1.2: does neither act synergistically to further suppress Na+ current in presence of FGF14 or rescue the voltage-dependence inactivation property
